Marks after values point to notes of the source that are not given here.
Test system: GPA33-expressing SW1222 xenografts
Test: Anti-GPA33-DOTA-PRIT + [^225Ac]Proteus-DOTA biodistribution
Conditions: for Blood uptake / SW1222 tumor uptake: pretargeted with huA33-C825 + clearing agent
Experimental: Biodistribution Experiments. A treatment cycle of anti-GPA33 DOTA-PRIT consisted of three separate intravenous injections via the tail vein: 0.25 mg of huA33-C825 antibody (described in WO2016/130539) at t=−28 h, then […] of clearing agent (500 kD-dextran-DOTA-Bn(Y)) at t=−4 h, and [^225Ac]Proteus-DOTA at t=0. For ex vivo biodistribution analysis following the radiohaptens or anti-HER2-C825/[^225Ac]Proteus-DOTA, mice were euthanized by CO2(g) asphyxiation, and the tumors and selected organs were harvested, rinsed with water, air-dried, weighed, and radioassayed by gamma scintillation counting (Perkin Elmer Wallac Wizard 3″, Perkin Elmer, Waltham, Mass.). Count rates were background- and decay-corrected, converted to activities using a system calibration factor specific for the isotope, normalized to the administered activity, and expressed as average percent injected dose per gram (% ID/g)±1 standard deviation. Differences in radioactivity concentration in tumor and various tissues were analyzed by Student's unpaired t test when appropriate.
Biodistribution Studies Following In vivo Targeting with Anti-GPA33-DOTA-PRIT+[^225Ac]Proteus-DOTA. [^225Ac]Proteus-DOTA was prepared to a final specific activity of 0.20 Ci/g or 274 Ci/mol and injected into groups of animals within 24-48 hours of preparation. Animals that had received injections of huA33-C825 and clearing agent were injected with […] of [^225Ac]Proteus-DOTA that was prepared approximately 24 hours prior. The following day, animals were sacrificed for ex vivo biodistribution assessment at 24 hours post injection of [^225Ac]Proteus-DOTA in tumors and select normal tissues. A control group of non-tumor bearing animals were injected with […] of [^225Ac]Proteus-DOTA that was prepared approximately 48 hours prior, and were sacrificed 1 hour post injection of [^225Ac]Proteus-DOTA for ex vivo biodistribution assessment in normal tissues. Carcass radioactivity was not collected during this study.
A control group of healthy nude mice were injected with [^225Ac]Proteus-DOTA only (198 pmol, 1.85 kBq [50 nCi]) to evaluate normal tissue uptake of the [^225Ac]Proteus-DOTA preparation.
These mice were sacrificed 24 h p.i. of [^225Ac]Proteus-DOTA for biodistribution assay. All animals were sacrificed at 24 h p.i. for biodistribution.

[1] = 24 h p.i., n = 3, listed as [^225Ac] Proteus-DOTA

O=C([O-])CN1CCN(CC(=O)[O-])CCN(CC(=O)NCCOCCOCCOCCOCCNC(=S)Nc2ccc(CC3CN(CC(=O)[O-])CCN(CC(=O)[O-])CCN(CC(=O)[O-])CCN3CC(=O)[O-])cc2)CCN(CC(=O)[O-])CC1.[225Ac+3].[Lu+3] (stereo not drawn) [[^225Ac]Proteus-DOTA]
Blood uptake (24 h p.i., n = 3): 0.94±0.26 % ID/g
SW1222 tumor uptake (24 h p.i., n = 3): 16.71±2.95 % ID/g
Blood uptake [1]: 0.94 ± 0.26^a % ID/g
SW1222 tumor uptake [1]: 16.71 ± 2.95 % ID/g
Bone uptake (pretargeted, 24 h p.i.): undetectable
Tumor-to-tissue ratio, Blood (pretargeted, 24 h p.i.): 17.9 ± 4.0
Tumor-to-tissue ratio, Heart (pretargeted, 24 h p.i.): 60.4 ± 35.8
Tumor-to-tissue ratio, Kidneys (pretargeted, 24 h p.i.): 15.5 ± 4.8
Tumor-to-tissue ratio, Large Intestine (pretargeted, 24 h p.i.): 147.5 ± 90.9
Tumor-to-tissue ratio, Liver (pretargeted, 24 h p.i.): 11.9 ± 4.2
Tumor-to-tissue ratio, Lungs (pretargeted, 24 h p.i.): 24.0 ± 13.5
Tumor-to-tissue ratio, Muscle (pretargeted, 24 h p.i.): 128.6 ± 129.2
Tumor-to-tissue ratio, Small Intestine (pretargeted, 24 h p.i.): 102.3 ± 67.1
Tumor-to-tissue ratio, Spleen (pretargeted, 24 h p.i.): 31.1 ± 31.3
Tumor-to-tissue ratio, Stomach (pretargeted, 24 h p.i.): 238.8 ± 150.7
blood uptake (percent injected activity per gram of tissue) (pretargeted, 24 h p.i.): 0.94±0.26 % IA/g
kidney uptake (percent injected activity per gram of tissue) (pretargeted, 24 h p.i.): 1.08±0.55 % IA/g
liver uptake (percent injected activity per gram of tissue) (pretargeted, 24 h p.i.): 1.40±0.47 % IA/g
Bone uptake (pretargeted, 24 h p.i., n = 3): 0.00 ± 0.00 % ID/g
Heart uptake (pretargeted, 24 h p.i., n = 3): 0.28 ± 0.28 % ID/g
Kidneys uptake (pretargeted, 24 h p.i., n = 3): 1.08±0.55 % ID/g
Large Intestine uptake (pretargeted, 24 h p.i., n = 3): 0.11 ± 0.12 % ID/g
Liver uptake (pretargeted, 24 h p.i., n = 3): 1.40 ± 0.82 % ID/g
Lungs uptake (pretargeted, 24 h p.i., n = 3): 0.70 ± 0.67 % ID/g
Muscle uptake (pretargeted, 24 h p.i., n = 3): 0.13 ± 0.23 % ID/g
Small Intestine uptake (pretargeted, 24 h p.i., n = 3): 0.16 ± 0.18 % ID/g
Spleen uptake (pretargeted, 24 h p.i., n = 3): 0.54 ± 0.93 % ID/g
Stomach uptake (pretargeted, 24 h p.i., n = 3): 0.07 ± 0.08 % ID/g
Kidneys uptake (pretargeted, 24 h p.i., n = 3, listed as [^225Ac] Proteus-DOTA): 1.08 ± 0.55 % ID/g
tumor uptake (percent injected activity per gram of tissue) (pretargeted, SW1222, 24 h p.i.): 16.71±2.95 % IA/g

Source: patent US11565005B2, “Dota-hapten compositions for anti-dota/anti-tumor antigen bispecific antibody pretargeted radioimmunotherapy” (MEMORIAL SLOAN KETTERING CANCER CENTER, priority 2017, dated 2023)
